From patent US20180208920A1, “MOLECULAR MACHINES” (Commonwealth Scientific and Industrial Research Organisation, priority 2015, published 2018)

Assays:
CaNOX = assay: Kinetics of NADH oxidase (NOX) with modified cofactor; format: biochemical, Clostridium aminoverlaricum; details: for Kcat / Km: cofactor as substrate of CaNOX
Description: (§1) The relative enzyme activity for the NAD-dependant glycerol-3-phosphate dehydrogenase enzymes identified for DHAP synthesis was assessed with the modified N^6-2AE-NAD. Kinetic data for EcG3PD and CaNOX was also obtained. To determine the relative activities and kinetic enzyme efficiency, modified N^6-2AE-NAD was reduced enzymatically, separated from enzymes using ultrafiltration and the amount of N^6-2AE-NADH calculated based on the absorbance A340nm.

CaNOX::AaE2 = format: biochemical, Alicyclobacillus acidophilus; details: after 5 min incubation with inhibitor on ice
[1] = test system: EcG3PD::CaNOX::AaE2 (TriF2); format: biochemical, Alicyclobacillus acidophilus; details: after 5 min incubation with inhibitor on ice
EcG3PD2 = target: T1, EcG3PD2 (Escherichia coli, UniProt P0A6S7); assay: Kinetics of glycerol-3-phosphate dehydrogenase with modified cofactor; format: biochemical, E. coli; details: EcG3PD, full kinetic analysis
T1 construct: His tag; made in house; host or cells: E. coli BL21AI or BL21DE3*
T1 sequence (P0A6S7 1-339): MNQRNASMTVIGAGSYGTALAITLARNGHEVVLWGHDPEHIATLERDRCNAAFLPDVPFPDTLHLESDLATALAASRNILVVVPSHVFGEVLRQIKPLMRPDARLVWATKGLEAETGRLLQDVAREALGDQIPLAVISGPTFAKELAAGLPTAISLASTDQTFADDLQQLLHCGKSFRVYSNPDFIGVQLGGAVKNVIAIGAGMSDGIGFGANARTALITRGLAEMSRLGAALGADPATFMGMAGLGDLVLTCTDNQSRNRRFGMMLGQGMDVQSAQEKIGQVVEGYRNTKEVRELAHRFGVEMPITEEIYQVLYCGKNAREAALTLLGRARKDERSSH
Description: as §1
(§2) Glycerol-3-phosphate dehydrogenase assays were conducted essentially as described by (Sakasegawa et al., 2004). Kinetics were determined by varying the concentrations of NAD/NADP or glycerol-3-phosphate, whilst maintaining the other components in excess, and kinetic determinants were calculated using Hyper (J. S. Easterby, Liverpool University). Substrate and cofactor concentrations ranged from 0.1 to 10×Km.

[2] = Batch reactions converting glycerol to G3P and DHAP; format: biochemical
Description: Reactions were conducted at room temperature in 1 mL total volume with 10 mM glycerol as starting substrate, between 1 and 14 nM of enzyme and 100 μM each of ATP and NAD. Samples were collected at various time points and analysed by LCMS (SIM monitoring for G3P and DHAP).
G3P and DHAP were separated using a modification of the method described in Prieto-Blanc et al., (2010). Chromatographic conditions were SIELC ObeliscN column (250 mm) with 50% mobile phase A, 50% mobile phase B for 30 minutes. Mobile phase A: 0.1% formic acid; mobile phase b: methanol with 0.1% acetic acid. Mass spectrophotometric detection was conducted using API-ES mode with an Agilent 6120 Quadroploe LCMS. Glycerol-3-phosphate was quantified by selected ion monitoring of ion 171, DHAP quantified by selected ion monitoring of ion 169, the three aldol condensation products fructose-1,6-biphosphate, “AP” and “XP” were quantified by selected ion monitoring of […].

[3] = substrate: NC(=O)c1ccc[n+]([C@@H]2O[C@H](COP(=O)([O-])OP(=O)(O)OC[C@H]3O[C@@H](n4cnc5c(N)ncnc54)[C@H](O)[C@@H]3O)[C@@H](O)[C@H]2O)c1; assay: Kinetics of glycerol-3-phosphate dehydrogenase with modified cofactor; format: biochemical, E. coli; details: other: cofactor as substrate of EcG3PD2
Description: as §1, §2

[4] = substrate: NCCNc1ncnc2c1ncn2[C@H]1O[C@@H](COP(=O)(O)OP(=O)(O)OC[C@H]2O[C@@H]([n+]3cccc(C(N)=O)c3)C(O)C2O)C(O)C1O; assay: as above; format: biochemical, E. coli; details: other: cofactor as substrate of EcG3PD2
Description: as §1, §2

Molecule: NCCNc1ncnc2c1ncn2[C@@H]1O[C@H](COP(=O)(O)OP(=O)(O)OC[C@H]2O[C@@H](N3C=CCC(C(N)=O)=C3)[C@H](O)[C@@H]2O)[C@@H](O)[C@H]1O [N^6-2AE-NADH]
- catalytic efficiency compared to NADH as substrate (CaNOX; NOX1 (CaNOX)): reduction in the catalytic efficiency
- Kcat (CaNOX): 343 ± 32.6 s⁻¹
- Km (CaNOX): 215 ± 27.2 µM

Molecule: CCCCCCSCC(=O)C(F)(F)F [1,1,1-trifluoro-3-(thiohexyl)propan-2-one]
- residual esterase activity (CaNOX::AaE2): completely abolished
- residual esterase activity [1]: completely abolished

Molecule: NCCNc1ncnc2c1ncn2[C@H]1O[C@@H](COP(=O)(O)OP(=O)(O)OC[C@H]2O[C@@H]([n+]3cccc(C(N)=O)c3)C(O)C2O)C(O)C1O (some centres unmarked) [N^6-2AE-NAD, N^6-(2-aminoethyl)-NAD^+]
- activity retained with the modified cofactor compared with unmodified NAD (EcG3PD2): 78%

Molecule: NC(=O)C1=CN([C@@H]2O[C@H](COP(=O)(O)OP(=O)(O)OC[C@H]3O[C@@H](n4cnc5c(N)ncnc54)[C@H](O)[C@@H]3O)[C@@H](O)[C@H]2O)C=CC1 [NADH]
- Kcat (CaNOX): 1204 ± 67.5 s⁻¹
- Km (CaNOX): 204 ± 15.4 µM

Molecule: Nc1ncnc2c1ncn2[C@@H]1O[C@H](COP(=O)(O)OP(=O)(O)OP(=O)(O)O)[C@@H](O)[C@H]1O [ATP, adenosine triphosphate]
- turnover of ATP per hour ([2]; BiF1 plus BiF2 batch reaction): ~40 h⁻¹
- turnovers of ATP per batch reaction ([2]; BiF1 plus BiF2 batch, 90 mM conversion of glycerol from 0.1 mM ATP starting concentration): ~200
- turnovers of ATP per batch reaction ([2]; TriF1 plus TriF2 batch, 4.5 mM conversion of glycerol from 0.01 mM ATP starting concentration): ~450

B1: EcG3PD2 (Escherichia coli K-12) (protein)
chain: MNQRNASMTVIGAGSYGTALAITLARNGHEVVLWGHDPEHIATLERDRCNAAFLPDVPFPDTLHLESDLATALAASRNILVVVPSHVFGEVLRQIKPLMRPDARLVWATKGLEAETGRLLQDVAREALGDQIPLAVISGPTFAKELAAGLPTAISLASTDQTFADDLQQLLHCGKSFRVYSNPDFIGVQLGGAVKNVIAIGAGMSDGIGFGANARTALITRGLAEMSRLGAALGADPATFMGMAGLGDLVLTCTDNQSRNRRFGMMLGQGMDVQSAQEKIGQVVEGYRNTKEVRELAHRFGVEMPITEEIYQVLYCGKNAREAALTLLGRARKDERSSH
notes: His tag; made in house; host or cells: E. coli BL21AI or BL21DE3*
- Km [3]: 147.1 ± 25.4 µM
- kcat [3]: 66.7 ± 10.6 s⁻¹
- kcat/Km [3]: 450000 M⁻¹ s⁻¹
- Km [4]: 181.2 ± 37.5 µM
- kcat [4]: 63.5 ± 9.4 s⁻¹
- kcat/Km [4]: 350000 M⁻¹ s⁻¹
